Data taken from the Kinase Knowledgebase extract (Sharma et al. 2016).
“And” between values parts separate entries of the source, which are not always exact repeats. Equal values may be shown once.

How the values were obtained:
PIK3CG (human) = PIK3CG (human) (UniProt P48736); test: Inhibition of PIK3CG Kinase Assay
PIK3CB = PIK3CB (UniProt P42338); test: Inhibition of PIK3CB Kinase Assay
Sequence of PIK3CB (P42338 whole entry, looked up): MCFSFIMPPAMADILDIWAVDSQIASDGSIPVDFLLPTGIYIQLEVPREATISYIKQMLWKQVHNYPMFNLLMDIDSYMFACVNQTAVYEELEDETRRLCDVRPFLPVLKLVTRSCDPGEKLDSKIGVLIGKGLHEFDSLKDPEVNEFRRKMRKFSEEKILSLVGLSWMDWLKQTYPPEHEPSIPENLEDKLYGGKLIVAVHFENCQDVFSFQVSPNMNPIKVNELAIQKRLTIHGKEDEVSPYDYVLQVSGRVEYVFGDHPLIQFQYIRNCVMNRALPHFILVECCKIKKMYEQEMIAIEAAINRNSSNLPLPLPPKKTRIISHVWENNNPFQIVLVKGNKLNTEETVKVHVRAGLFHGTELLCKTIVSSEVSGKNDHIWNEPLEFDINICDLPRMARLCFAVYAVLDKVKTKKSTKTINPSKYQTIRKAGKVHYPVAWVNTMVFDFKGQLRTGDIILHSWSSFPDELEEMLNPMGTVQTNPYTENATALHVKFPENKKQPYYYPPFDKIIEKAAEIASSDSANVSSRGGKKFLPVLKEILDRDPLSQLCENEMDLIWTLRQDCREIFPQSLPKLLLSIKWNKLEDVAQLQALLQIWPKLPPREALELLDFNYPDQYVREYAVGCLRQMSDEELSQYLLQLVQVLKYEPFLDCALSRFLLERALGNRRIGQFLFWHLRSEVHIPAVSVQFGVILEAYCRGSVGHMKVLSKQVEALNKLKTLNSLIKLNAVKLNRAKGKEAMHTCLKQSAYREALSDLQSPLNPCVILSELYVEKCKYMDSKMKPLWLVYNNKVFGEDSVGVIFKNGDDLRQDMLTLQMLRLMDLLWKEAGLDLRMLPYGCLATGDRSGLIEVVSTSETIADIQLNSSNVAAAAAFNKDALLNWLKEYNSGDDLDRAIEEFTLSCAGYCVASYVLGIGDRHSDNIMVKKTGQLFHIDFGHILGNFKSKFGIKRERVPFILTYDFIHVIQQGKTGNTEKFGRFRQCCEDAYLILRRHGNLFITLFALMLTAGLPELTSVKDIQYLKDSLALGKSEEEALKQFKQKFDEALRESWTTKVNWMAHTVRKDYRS

Sequence of PIK3CG (human) (P48736 whole entry, looked up): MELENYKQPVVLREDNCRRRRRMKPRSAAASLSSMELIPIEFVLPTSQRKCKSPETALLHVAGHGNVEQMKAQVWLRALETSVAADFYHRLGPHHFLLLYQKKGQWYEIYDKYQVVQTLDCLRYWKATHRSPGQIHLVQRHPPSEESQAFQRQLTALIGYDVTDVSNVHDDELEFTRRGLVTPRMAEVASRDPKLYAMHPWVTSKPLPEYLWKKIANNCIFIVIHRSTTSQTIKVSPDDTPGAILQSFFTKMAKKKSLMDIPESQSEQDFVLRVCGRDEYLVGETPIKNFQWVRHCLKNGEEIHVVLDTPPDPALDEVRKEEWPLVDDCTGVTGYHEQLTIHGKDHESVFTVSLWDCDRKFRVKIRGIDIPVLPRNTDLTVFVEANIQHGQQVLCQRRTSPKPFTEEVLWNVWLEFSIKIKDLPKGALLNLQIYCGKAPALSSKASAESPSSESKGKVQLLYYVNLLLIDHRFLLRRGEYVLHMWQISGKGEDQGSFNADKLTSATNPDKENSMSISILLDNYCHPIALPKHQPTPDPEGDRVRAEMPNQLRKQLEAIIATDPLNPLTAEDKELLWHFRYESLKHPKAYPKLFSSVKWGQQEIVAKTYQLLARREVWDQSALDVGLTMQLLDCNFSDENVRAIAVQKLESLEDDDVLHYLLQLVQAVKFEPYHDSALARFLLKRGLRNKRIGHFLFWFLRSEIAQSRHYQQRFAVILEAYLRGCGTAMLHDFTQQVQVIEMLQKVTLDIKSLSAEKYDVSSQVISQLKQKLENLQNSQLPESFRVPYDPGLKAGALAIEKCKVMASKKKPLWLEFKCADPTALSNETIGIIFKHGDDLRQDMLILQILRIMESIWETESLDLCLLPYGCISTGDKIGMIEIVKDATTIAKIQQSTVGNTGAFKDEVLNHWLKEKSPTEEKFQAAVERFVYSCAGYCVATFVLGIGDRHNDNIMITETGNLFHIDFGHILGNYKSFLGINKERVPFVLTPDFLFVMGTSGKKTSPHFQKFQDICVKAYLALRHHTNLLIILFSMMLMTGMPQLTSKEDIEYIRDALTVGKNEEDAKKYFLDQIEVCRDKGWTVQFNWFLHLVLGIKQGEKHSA

Structure (SMILES)	IC50 (PIK3CG (human)) [nM]	IC50 (PIK3CB)
COc1c(OCCCC(=O)N2CCOCC2)ccc2c1N=C(/C=C(\O)c1cccnc1)N1CCN=C21	≤ 100	100 to 500 nM
COc1c(O)ccc2c1N=C(/C=C(\O)c1cccnc1)N1CCN=C21	–	500 to 2000 nM
O=C(NC1=Nc2cc(OCCn3cccc3)ccc2C2=NCCN12)c1cccnc1	100 to 500	100 to 500 nM
O=C(NC1=Nc2cc(O)ccc2C2=NCCN12)c1cccnc1	100 to 500	500 to 2000 nM
COc1c(OCCCC(=O)O)ccc2c1N=C(/C=C(\O)c1cccnc1)N1CCN=C21	≤ 100	100 to 500 nM
COc1cc2c(cc1OC)C1=NCCN1C(/C=C(\O)c1cccnc1)=N2	≤ 100	500 to 2000 nM
O=C(NC1=Nc2ccccc2C2=NCCN12)c1cccnc1	≤ 100	100 to 500 nM
CC(=O)Nc1ccc(C(=O)NC2=Nc3cc(N4CCOCC4)ccc3C3=NCCN23)cn1	≤ 100	500 to 2000 nM and 100 to 500 nM
COc1cc2c(cc1OC)C1=NCCN1C(/C=C(\O)c1ccc3[nH]cnc3c1)=N2	≤ 100	–
COc1ccc2c(c1OC)N=C(NC(=O)c1ccc3[nH]cnc3c1)N1CCN=C21	≤ 100	–
COc1c(OCC(=O)N(C)C)ccc2c1N=C(/C=C(\O)c1cccnc1)N1CCN=C21	≤ 100	–
Cc1cc(C(=O)NC2=Nc3ccccc3C3=NCCN23)cc(C)c1[N+](=O)[O-]	> 2000	–
Cc1ccc(/C(O)=C/C2=Nc3ccccc3C3=NCCN23)cn1	100 to 500	–
Nc1ccc(C(=O)NC2=Nc3ccccc3C3=NCCN23)cn1	≤ 100	–
O=C(NC1=Nc2ccccc2C2=NCCN12)c1ccncc1	500 to 2000	–

Further lines, results first:

IC50 (PIK3CG (human)) [nM]	IC50 (PIK3CB)	Structure (SMILES)
–	500 to 2000 nM	COC(=O)CCCOc1ccc2c(c1OC)N=C(/C=C(\O)c1cccnc1)N1CCN=C21
≤ 100	–	O/C(=C\C1=Nc2cc(N3CCOCC3)ccc2C2=NCCN12)c1ccc2[nH]cnc2c1
500 to 2000	–	O/C(=C\C1=Nc2ccccc2C2=NCCN12)c1ccccn1
100 to 500	–	O/C(=C\C1=Nc2ccccc2C2=NCCN12)c1cccnc1
≤ 100	–	COc1cccc2c1N=C(NC(=O)c1cc3cccnc3nc1C)N1CCN=C21
≤ 100	–	COc1ccc2c(c1)N=C(NC(=O)c1ccc(N)nc1)N1CCN=C21
100 to 500	–	COc1cc2c(c(OC)c1C)N=C(NC(=O)c1ccc3[nH]cnc3c1)N1CCN=C21
≤ 100	–	O/C(=C\C1=Nc2cc(N3CCOCC3)ccc2C2=NCCN12)c1cncc(O)c1
> 2000	–	O=C(NC1=Nc2ccccc2C2=NCCN12)c1ccc([N+](=O)[O-])s1
≤ 100	–	O=C(NC1=Nc2cc(N3CCOCC3)ccc2C2=NCCN12)c1cncc(O)c1
≤ 100	–	COc1ccc2c(c1OC)N=C(/C=C(\O)c1cccnc1)N1CCN=C21
≤ 100	–	COc1cc2c(c(OC)c1C)N=C(/C=C(\O)c1ccc(NC(C)=O)nc1)N1CCN=C21
100 to 500	–	COc1cc(OC)c2c(c1)C1=NCCN1C(NC(=O)c1ccc(NC(C)=O)nc1)=N2
100 to 500	–	O=C(NC1=Nc2ccccc2C2=NCCN12)c1sccc1Cl
≤ 100	–	COc1cc(OC)c2c(c1)C1=NCCN1C(NC(=O)c1ccc3[nH]cnc3c1)=N2
100 to 500	–	CC(=O)Nc1ccc(C(=O)NC2=Nc3cc(N4CCOCC4)ccc3C3=NCCN23)cc1
100 to 500	–	O/C(=C\C1=Nc2ccccc2C2=NCCN12)c1cnccn1
